In experiment [1] the test system is LNCaP, Du145, and PC3M cell lines. In words: Wound-healing (scratch) assay. The experiment is classed as cell-based, human. Particulars: 24 hr, compared with the control. The procedure:
Wound-healing Assay. A wound-healing assay, the scratch assay, was performed according to the protocol published in Liang, et al. (2007), Nat. Protoc. 2, 329-333. Briefly, in this scratch assay 60-mm dishes were coated with ECM and incubated overnight, unbound ECM was removed and the dishes were blocked with bovine serum albumin. Subconfluent growing cells were resuspended in a tissue culture dish by washing cells with PBS, adding versene containing trypsin, and mixing cells with medium containing serum. Cells were then plated onto the prepared 60-mm dish to create a confluent monolayer, and incubated for 6 hr at 37° C.
The cell lines LNCaP (null galectin-3), DU145 (stable clone with reduced galectin-3 expression), and PC3M were used to examine the effect of full-length galectin-3, galectin-3 1-107, and galectin-3 108-250 on prostate cancer cell motility using the scratch assay. The assay was performed with LNCaP, Du145, and PC3M cultured cell lines stimulated by full-length galectin-3, and fragments galectin-3 1-107 and 108-250. A uniform wound was made in each plate using a 1-μl pipette tip. The wound area was observed immediately, then at 24 hr after creation the cells were counted. Cells were grown under identical conditions.

For experiment [2], the system named is co-cultured BAMEC and LNCaP cells. Description: Three-dimensional growth and tube formation assay, BAMEC/LNCaP co-culture on […]. The settings on record: for tube formation: loops / tube formation: units of tubes: 10 μg/ml protein added to medium, 36 hr; for tube formation: loops: control 0; for tube formation: units of tubes: control 73; for branching morphogenesis of endothelial cells: 10 μg/ml protein, BAMEC/LNCaP co-culture. It is filed as cell-based, bovine, human. On the procedure:
Three-dimensional Growth and Tube Formation Assay. To analyze in vitro angiogenesis and interactions between epithelial and endothelial cell formation of tubular networks by co-cultured BAMEC and LNCaP cells, a three-dimensional growth and tube formation assay was performed. Briefly, […]® (10 μl) was added to each chamber of the slide (μ-Slide, ibidi, Martinsried, Germany) and gelled by a 30-min incubation at room temperature, after which 15,000 BAMEC and 5000 LNCaP cells were plated onto the gel in 50 μl of Eagle's minimal essential complete medium. In some chambers, full-length galectin-3 or its fragments were added. After 36 hr, three-dimensional structures were observed under phase contrast microscope and photographed. Images were acquired with an Olympus IX71 microscope supporting a Hamamatsu ORCA-ER video camera. Tube formation image analysis was done using the web-based Image Analysis Win-Tube module of Wimasis online software.
Three-dimensional heterotypic co-cultures of epithelial (LNCaP) and endothelial (BAMEC) cells were performed on […]® to study tube formation in the presence of 10 μg/ml galectin-3 and its fragments. […] FIG. 2B presents a quantitative evaluation of the tube formation assay.

The test system of another experiment is LNCaP cells. Description: Chemotaxis assay (Boyden chamber). The experiment is classed as cell-based, human. Particulars: 10 μg/ml, 5 hr, compared with control or either of the two fragments. On the procedure:
Chemotaxis. This assay was performed using a Boyden chamber (Neuroprobe). In the lower chamber, the chemo-attractant […]® (BD Biosciences) alone or mixed with various concentrations of recombinant galectin-3, galectin-3 1-107, or galectin-3 108-250 was added. LNCaP (5×10^4) cells suspended in basic DMEM were loaded in the upper chamber. The two chambers were separated by a polycarbonate filter of 5-micron pore size and incubated in a 37° C. tissue culture incubator for 5 hr, after which the filter was removed, the cells on top of the filter were wiped off, and the migrated cells were fixed, stained using Protocol Hema 3 stain set (Fisher Scientific), and counted under microscope. Each assay was carried out in triplicate.
The effects of galectin-3 1-107 and 108-250 fragments, as well as full-length galectin-3 on migration of LNCaP cells in a chemotaxis assay were also tested.

As to “galectin-3 108-250: recombinant fragment 108-250 of human galectin-3 (SEQ ID NO:3), contains carbohydrate recognition domain”, the “prostate cancer cell motility” value in experiment [1] is “did not show a significant increase in motility”. Also, in experiment [2], the “tube formation: loops” value is on record as 0, the “tube formation: units of tubes” value is recorded as 76 units and the “branching morphogenesis of endothelial cells” value is reported as “failed to do so”.
With “full-length galectin-3: recombinant full-length human galectin-3 protein (SEQ ID NO:1), overexpressed in Escherichia coli”, the “prostate cancer cell motility” value in experiment [1] was “promotes prostate cancer cell motility”. Further, in the experiment with LNCaP cells, the “migration of LNCaP cells toward MATRIGEL” value is reported as “significantly higher”. Moreover, in experiment [2], the “tube formation: loops” value stood at 12, the “tube formation: units of tubes” value stood at 127 units and the “branching morphogenesis of endothelial cells” value was “induced branching morphogenesis”.

For the origin of these results see patent publication US20150377889A1, “GALECTIN-3 AS A MARKER FOR PROSTATE CANCER” (Wayne State University, priority 2013, published 2015).
